Starred links: 1 amine or outer side, 2 acyl side, 3 side chain; linkers in the order of their positions; H or OH if unused. Positions of bridges follow the written chain, without caps; N, C: chain ends. Non-standard residues stand in square brackets, D forms with d. Residues, ends and D or L forms follow the SMILES beside them. *: point of attachment. hPhe(3-Cl-4-CF3) = N[C@@H](CCc1ccc(C(F)(F)F)c(Cl)c1)C(=O)O; hPhe(3-F,4-CF3) = N[C@@H](CCc1ccc(C(F)(F)F)c(F)c1)C(=O)O; NEtPhe(4-Cl) = CCN[C@@H](Cc1ccc(Cl)cc1)C(=O)O; NMeAbu(4,4,4-F3) = CN[C@@H](CC(F)(F)F)C(=O)O; NMePhe(4-Me) = CN[C@@H](Cc1ccc(C)cc1)C(=O)O; NMePhe(4-I) = CN[C@@H](Cc1ccc(I)cc1)C(=O)O; hPhe(4-Cl) = N[C@@H](CCc1ccc(Cl)cc1)C(=O)O; NMedβ3hAla = C[C@H](CC(=O)[*:2])N(C)[*:1]; NMeAla(cPent) = CN[C@@H](CC1CCCC1)C(=O)O; NMeGly(cPent) = CN[C@H](C(=O)O)C1CCCC1; dαMeGly(allyl) = C=CC[C@@](C)(N)C(=O)O; NMe3Pal = CN[C@@H](Cc1cccnc1)C(=O)O; NMeCha = CN[C@@H](CC1CCCCC1)C(=O)O; NMeChg = CN[C@H](C(=O)O)C1CCCCC1; NMeI = CC[C@H](C)[C@H](NC)C(=O)O; NMeD = CN[C@@H](CC(=O)O)C(=O)O; NMeHpra = C#CCC[C@H](NC)C(=O)O; NMeL = CN[C@@H](CC(C)C)C(=O)O; NEtAla = CCN[C@@H](C)C(=O)O; NMeV = CN[C@H](C(=O)O)C(C)C; d(β3hA) = C[C@@H](N)CC(=O)O; NMeS = CN[C@@H](CO)C(=O)O; NMeA = CN[C@@H](C)C(=O)O; Piperidide = C1CCN(*)CC1; Pyrrolidide = C1CCN(*)C1; dNMeA = CN[C@H](C)C(=O)O; Ac5c = NC1(C(=O)O)CCCC1; Aze = O=C(O)[C@@H]1CCN1; Cyclobutyl = C1CC(*)C1; Isopentyl = CC(C)CC*; Sar = CNCC(=O)O
Experiments:
[1] = target: T1, Kras and SOS1 (biotin-tagged human Kras loaded with GDP, His-tagged human SOS1) (Homo sapiens, UniProt P01116, G12D); experiment: Protein-protein interaction inhibition between Kras and SOS1 (KrasGl2D-SOS PPI) using AlphaScreen; type: binding; settings: AlphaScreen; biotin-tagged human Kras loaded with GDP, His-tagged human SOS1; read-out: KRAS G12D-SOS PPI IC50
T1 construct: made in house; host or cells: E. coli (stated for Kras only)
Outline: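 AlphaScreen format: Ni donor beads capture His-SOS1, streptavidin acceptor beads capture biotinylated Kras (E. coli-expressed, GDP-loaded post-purification). Excite 680 nm, read 520-620 nm.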

[2] = tested on: Human pancreatic cancer cell line AsPC-1; experiment: Measurement of AsPC-1 cell growth inhibition (AsPC-1 CGI); type: cell-based; settings: 96 h
Outline: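 AsPC-1 cells in 15% FBS RPMI-1640 were exposed to test compound for 96 hours at 37° C, with CellTiter-Glo as endpoint.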

T1 sequence (P01116 1-188 isoform P01116-2 G12D): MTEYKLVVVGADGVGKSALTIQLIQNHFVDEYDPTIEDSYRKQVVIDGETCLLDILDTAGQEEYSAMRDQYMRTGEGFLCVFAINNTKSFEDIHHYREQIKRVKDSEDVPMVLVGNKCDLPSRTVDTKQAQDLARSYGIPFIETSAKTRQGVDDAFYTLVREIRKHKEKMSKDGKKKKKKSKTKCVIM

Compound | IC50 [1] [nM] | IC50 [2] [nM]
CC[C@H](C)[C@@H]1NC(=O)[C@H](CC(C)C)N(C)C(=O)C[C@@H](C(=O)N(C)C)N(C)C(=O)[C@H]([C@@H](C)CC)N(C)C(=O)C2(CCCC2)NC(=O)[C@H](Cc2cccnc2)N(C)C(=O)[C@H](CCc2ccc(C(F)(F)F)c(Cl)c2)NC(=O)CN(C)C(=O)[C@H](Cc2ccc(C)cc2)N(C)C(=O)[C@@H]2CCN2C(=O)[C@H](C)N(C)C1=O [Compound 243] ([NMeL]I[NMeA][Aze][NMePhe(4-Me)][Sar][hPhe(3-Cl-4-CF3)][NMe3Pal][Ac5c][NMeI][NMeD]-NMe2; lactam N-11) | 0.43 | 20 to 50
CC[C@H](C)[C@@H]1NC(=O)[C@H](C)N(C)C(=O)C[C@@H](C(=O)N2CCCCC2)N(C)C(=O)[C@H](C2CCCC2)N(C)C(=O)C2(CCCC2)NC(=O)[C@@H]2CCCN2C(=O)[C@H](CCc2ccc(C(F)(F)F)c(Cl)c2)NC(=O)CN(C)C(=O)[C@H](CC2CCCCC2)N(C)C(=O)CN(C)C(=O)CN(C)C1=O [Compound 246] ([NMeA]I[Sar][Sar][NMeCha][Sar][hPhe(3-Cl-4-CF3)]P[Ac5c][NMeGly(cPent)][NMeD]-Piperidide; lactam N-11) | 0.3 | 50 to 100
CC[C@H](C)[C@@H]1NC(=O)[C@H](CC(C)C)N(C)C(=O)C[C@@H](C(=O)N(C)C)N(C)C(=O)[C@H](C2CCCC2)N(C)C(=O)C2(CCCC2)NC(=O)[C@H](COCCC(C)C)N(C)C(=O)[C@H](CCc2ccc(C(F)(F)F)c(Cl)c2)NC(=O)CN(C)C(=O)[C@H](CC2CCCCC2)N(C)C(=O)[C@@H]2CCN2C(=O)[C@H](C)N(C)C1=O [Compound 250] ([NMeL]I[NMeA][Aze][NMeCha][Sar][hPhe(3-Cl-4-CF3)][NMeS](Isopentyl)[Ac5c][NMeGly(cPent)][NMeD]-NMe2; lactam N-11) | 9.8 | 100 to 500
CC[C@H](C)[C@@H]1NC(=O)[C@H](C)N(CC)C(=O)C[C@@H](C)N(C)C(=O)[C@H](C(C)C)N(C)C(=O)C2(CCCC2)NC(=O)[C@@H]2CCCN2C(=O)[C@H](CCc2ccc(C(F)(F)F)c(Cl)c2)NC(=O)CN(C)C(=O)[C@H](CC2CCCCC2)N(C)C(=O)CN(C)C(=O)CN(C)C1=O [Compound 264] (cyclo([Ac5c][NMeV][NMedβ3hAla][NEtAla]I[Sar][Sar][NMeCha][Sar][hPhe(3-Cl-4-CF3)]P)) | 4.5 | 100 to 500
CC[C@H](C)[C@@H]1NC(=O)[C@H](CC(C)C)N(C)C(=O)C[C@@H](C(=O)N(C)C)N(C)C(=O)[C@H](C2CCCC2)N(C)C(=O)C2(CCCC2)NC(=O)[C@H](C)N(C)C(=O)[C@H](CCc2ccc(C(F)(F)F)c(Cl)c2)NC(=O)CN(C)C(=O)[C@H](CC2CCCCC2)N(C)C(=O)[C@@H]2CCN2C(=O)[C@H](C)N(C)C1=O [Compound 274] ([NMeL]I[NMeA][Aze][NMeCha][Sar][hPhe(3-Cl-4-CF3)][NMeA][Ac5c][NMeGly(cPent)][NMeD]-NMe2; lactam N-11) | 0.82 | 50 to 100
CC[C@H](C)[C@@H]1NC(=O)[C@H](CC2CCCCC2)N(C)C(=O)C[C@@H](C)NC(=O)[C@H](C(C)C)N(C)C(=O)C2(CCCC2)NC(=O)[C@@H]2CCCN2C(=O)[C@H](CCc2ccc(C(F)(F)F)c(Cl)c2)NC(=O)CN(C)C(=O)[C@H](CC2CCCCC2)N(C)C(=O)CN(C)C(=O)CN(C)C1=O [Compound 285] (cyclo([Ac5c][NMeV][d(β3hA)][NMeCha]I[Sar][Sar][NMeCha][Sar][hPhe(3-Cl-4-CF3)]P)) | 52 | 100 to 500
C=CC[C@@]1(C)NC(=O)[C@@H]2CCCN2C(=O)[C@H](CCc2ccc(C(F)(F)F)c(Cl)c2)NC(=O)CN(C)C(=O)[C@H](CC2CCCCC2)N(C)C(=O)CN(C)C(=O)CN(C)C(=O)[C@H]([C@@H](C)CC)NC(=O)[C@H](CC(C)C)N(C)C(=O)C[C@@H](C(=O)N2CCCCC2)N(C)C(=O)[C@H](C(C)C)N(C)C1=O [Compound 287] ([NMeL]I[Sar][Sar][NMeCha][Sar][hPhe(3-Cl-4-CF3)]P[dαMeGly(allyl)][NMeV][NMeD]-Piperidide; lactam N-11) | 5.1 | 100 to 500
CC[C@H](C)[C@@H]1NC(=O)[C@H](CC(C)C)N(C)C(=O)C[C@@H](C(=O)N(C)C)N(C)C(=O)[C@H]([C@@H](C)CC)N(C)C(=O)C2(CCCC2)NC(=O)[C@@H](C)N(C)C(=O)[C@H](CCc2ccc(C(F)(F)F)c(Cl)c2)NC(=O)CN(C)C(=O)[C@H](Cc2ccc(C)cc2)N(C)C(=O)[C@@H]2CCN2C(=O)[C@H](C)N(C)C1=O [Compound 288] ([NMeL]I[NMeA][Aze][NMePhe(4-Me)][Sar][hPhe(3-Cl-4-CF3)][dNMeA][Ac5c][NMeI][NMeD]-NMe2; lactam N-11) | 1.7 | 100 to 500
CC[C@H](C)[C@@H]1NC(=O)[C@H](C)N(C)C(=O)C[C@@H](C(=O)N2CCCCC2)N(C)C(=O)[C@H](C2CCCCC2)N(C)C(=O)C2(CCCC2)NC(=O)[C@@H]2CCCN2C(=O)[C@H](CCc2ccc(Cl)cc2)NC(=O)CN(C)C(=O)[C@H](CC2CCCCC2)N(C)C(=O)CN(C)C(=O)CN(C)C1=O [Compound 292] ([NMeA]I[Sar][Sar][NMeCha][Sar][hPhe(4-Cl)]P[Ac5c][NMeChg][NMeD]-Piperidide; lactam N-11) | 0.45 | 50 to 100
C#CCC[C@H]1C(=O)N[C@@H]([C@@H](C)CC)C(=O)N(C)CC(=O)N(C)CC(=O)N(C)[C@@H](Cc2ccc(I)cc2)C(=O)N(C)CC(=O)N[C@@H](CCc2ccc(C(F)(F)F)c(Cl)c2)C(=O)N2CCC[C@H]2C(=O)NC2(CCCC2)C(=O)N(C)[C@@H](C2CCCCC2)C(=O)N[C@H](C)CC(=O)N1C [Compound 300] (cyclo([Ac5c][NMeChg][d(β3hA)][NMeHpra]I[Sar][Sar][NMePhe(4-I)][Sar][hPhe(3-Cl-4-CF3)]P)) | 9.5 | 100 to 500
CC[C@H](C)[C@@H]1NC(=O)[C@H](CC(C)C)N(C)C(=O)C[C@@H](C(=O)N2CCCCC2)N(C)C(=O)[C@H](C2CCCCC2)N(C)C(=O)C2(CCCC2)NC(=O)[C@@H]2CCCN2C(=O)[C@H](CCc2ccc(C(F)(F)F)c(Cl)c2)NC(=O)CN(C)C(=O)[C@H](COC2CCC2)N(C)C(=O)CN(C)C(=O)CN(C)C1=O [Compound 309] ([NMeL]I[Sar][Sar][NMeS](Cyclobutyl)[Sar][hPhe(3-Cl-4-CF3)]P[Ac5c][NMeChg][NMeD]-Piperidide; lactam N-11) | 0.75 | 100 to 500
CC[C@H](C)[C@@H]1NC(=O)[C@H](CC(C)C)N(C)C(=O)C[C@@H](C(=O)N2CCCCC2)N(C)C(=O)[C@H]([C@@H](C)CC)N(C)C(=O)C2(CCCC2)NC(=O)[C@@H]2CCCN2C(=O)[C@H](CCc2ccc(C(F)(F)F)c(Cl)c2)NC(=O)CN(C)C(=O)[C@H](CC2CCCCC2)N(C)C(=O)CN(C)C(=O)CN(C)C1=O [Compound 311] ([NMeL]I[Sar][Sar][NMeCha][Sar][hPhe(3-Cl-4-CF3)]P[Ac5c][NMeI][NMeD]-Piperidide; lactam N-11) | 5.9 | 20 to 50
CC[C@H](C)[C@@H]1NC(=O)[C@H](CC2CCCCC2)N(C)C(=O)C[C@@H](C(=O)N2CCCCC2)N(C)C(=O)[C@H](C(C)C)N(C)C(=O)C2(CCCC2)NC(=O)[C@@H]2CCCN2C(=O)[C@H](CCc2ccc(C(F)(F)F)c(Cl)c2)NC(=O)CN(C)C(=O)[C@H](CC2CCCCC2)N(C)C(=O)CN(C)C(=O)CN(C)C1=O [Compound 321] ([NMeCha]I[Sar][Sar][NMeCha][Sar][hPhe(3-Cl-4-CF3)]P[Ac5c][NMeV][NMeD]-Piperidide; lactam N-11) | 11 | 100 to 500
CC[C@H](C)[C@@H]1NC(=O)[C@H](CC(F)(F)F)N(C)C(=O)C[C@@H](C(=O)N2CCCC2)N(C)C(=O)[C@H](C2CCCCC2)N(C)C(=O)C2(CCCC2)NC(=O)[C@@H]2CCCN2C(=O)[C@H](CCc2ccc(C(F)(F)F)c(Cl)c2)NC(=O)CN(C)C(=O)[C@H](CC2CCCC2)N(C)C(=O)CN(C)C(=O)CN(C)C1=O [Compound 326] ([NMeAbu(4,4,4-F3)]I[Sar][Sar][NMeAla(cPent)][Sar][hPhe(3-Cl-4-CF3)]P[Ac5c][NMeChg][NMeD]-Pyrrolidide; lactam N-11) | 0.7 | 50 to 100
CC[C@H](C)[C@@H]1NC(=O)[C@H](CC(C)C)N(C)C(=O)C[C@@H](C(=O)N2CCCCC2)N(C)C(=O)[C@H](CC(C)C)N(C)C(=O)C2(CCCC2)NC(=O)[C@@H]2CCCN2C(=O)[C@H](CCc2ccc(C(F)(F)F)c(F)c2)NC(=O)CN(C)C(=O)[C@H](Cc2ccc(Cl)cc2)N(CC)C(=O)CN(C)C(=O)CN(C)C1=O [Compound 328] ([NMeL]I[Sar][Sar][NEtPhe(4-Cl)][Sar][hPhe(3-F,4-CF3)]P[Ac5c][NMeL][NMeD]-Piperidide; lactam N-11) | 94 | 100 to 500
CC[C@H](C)[C@@H]1NC(=O)[C@H](CC(C)C)N(C)C(=O)C[C@@H](C)N(C)C(=O)[C@H](C(C)C)N(C)C(=O)C2(CCCC2)NC(=O)[C@@H]2CCCN2C(=O)[C@H](CCc2ccc(C(F)(F)F)c(F)c2)NC(=O)CN(C)C(=O)[C@H](CC2CCCCC2)N(C)C(=O)CN(C)C(=O)CN(C)C1=O [Compound 337] (cyclo([Ac5c][NMeV][NMedβ3hAla][NMeL]I[Sar][Sar][NMeCha][Sar][hPhe(3-F,4-CF3)]P)) | 16 | 100 to 500

From patent publication US12371454B2, “Cyclic peptide compound having Kras inhibitory action” (priority 2019, dated 2025)
